# Test results as given in US4544662A, “1'-Substituted-spiro[oxazolidine-5-3'-indoline]-2,2', 4-trione derivatives” (Imperial Chemical Industries, priority 1982, dated 1985).
# pIC50: −log10 of the molar value.
# Target: T1, aldose reductase (Bos taurus, UniProt P16116)
# T1 construct: purified aldose reductase is isolated in known manner from bovine lenses; from tissue; host or cells: bovine lens
# Assay: in vitro inhibition of purified aldose reductase isolated from bovine lenses (spectrophotometric)
# Format: biochemical
# Conditions: purified bovine lens aldose reductase; reduction of glucose to sorbitol; read-out: IC50 (concentration necessary to produce 50% inhibition of enzymic activity)
# Experimental: Thus, purified aldose reductase is isolated in known manner from bovine lenses. The percentage inhibition of this enzyme's ability in vitro to reduce aldoses to polyhydric alcohols, and particularly to reduce glucose to sorbitol, caused by a test compound is then determined using standard spectrophotometric methods.
row,pIC50,Compound
1,7.60,"Cc1cc(Cl)cc2c1N(Cc1ccc(Cl)c(Cl)c1)C(=O)C21OC(=O)NC1=O (centres unmarked) [Example 7, 1'-(3,4-dichlorobenzyl)-5'-chloro-7'-methylspiro[oxazolidine-5,3'-indoline]-2,2',4-trione]"
2,7.70,"Cc1cccc2c1N(Cc1ccc(Br)cc1F)C(=O)C21OC(=O)NC1=O (centres unmarked) [Example 6, 1'-(4-bromo-2-fluorobenzyl)-7'-methylspiro[oxazolidine-5,3'-indoline]-2,2',4-trione]"
